Data: paper PMC12663298, “Sibiriline, a novel dual inhibitor of necroptosis and ferroptosis, prevents RIPK1 kinase activity and (phospho)lipid peroxidation as a potential therapeutic strategy” (Cell Death Discovery, 2025)

Experiments:
Type in all cases: biochemical
JAK2 = JAK2 (Homo sapiens, UniProt O60674); experiment: enzymatic kinase assay (Eurofins) at KM,ATP
KIT = KIT (Homo sapiens, UniProt P10721); experiment: enzymatic kinase assay (Eurofins) at KM,ATP
ABL1 = ABL1 (Homo sapiens, UniProt P00519); experiment: ADP-Glo kinase assay at KM,ATP
AURKC = molecular target: T1, AURKC (Homo sapiens, UniProt Q9UQB9); experiment: enzymatic kinase assay (Eurofins) at KM,ATP
T1 sequence (Q9UQB9 1-309): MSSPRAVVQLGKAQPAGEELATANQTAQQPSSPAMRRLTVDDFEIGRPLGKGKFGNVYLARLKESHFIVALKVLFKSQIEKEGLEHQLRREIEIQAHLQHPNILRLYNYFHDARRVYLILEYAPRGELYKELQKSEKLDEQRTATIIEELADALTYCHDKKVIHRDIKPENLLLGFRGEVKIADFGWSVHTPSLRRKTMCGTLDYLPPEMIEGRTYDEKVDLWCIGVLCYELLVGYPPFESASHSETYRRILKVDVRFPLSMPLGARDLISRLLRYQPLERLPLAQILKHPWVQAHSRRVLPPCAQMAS

DRAK2 = molecular target: T2, DRAK2 (Homo sapiens, UniProt O94768); experiment: enzymatic kinase assay (Eurofins) at KM,ATP
T2 construct: gene STK17B
T2 sequence (O94768 1-372): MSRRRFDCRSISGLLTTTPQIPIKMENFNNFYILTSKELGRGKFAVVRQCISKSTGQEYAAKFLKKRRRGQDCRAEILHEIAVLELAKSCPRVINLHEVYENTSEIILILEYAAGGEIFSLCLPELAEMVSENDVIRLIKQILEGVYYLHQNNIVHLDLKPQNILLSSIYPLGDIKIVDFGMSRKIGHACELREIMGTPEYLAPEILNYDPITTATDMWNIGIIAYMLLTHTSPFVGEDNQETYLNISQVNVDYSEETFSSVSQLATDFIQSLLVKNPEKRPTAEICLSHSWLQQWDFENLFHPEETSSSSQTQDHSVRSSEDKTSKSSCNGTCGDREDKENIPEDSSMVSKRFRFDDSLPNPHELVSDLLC

PDGFR-β = molecular target: T3, PDGFR-β (Homo sapiens, UniProt P09619); experiment: enzymatic kinase assay (Eurofins) at KM,ATP
T3 construct: gene PDGFRB
T3 sequence (P09619 33-1106): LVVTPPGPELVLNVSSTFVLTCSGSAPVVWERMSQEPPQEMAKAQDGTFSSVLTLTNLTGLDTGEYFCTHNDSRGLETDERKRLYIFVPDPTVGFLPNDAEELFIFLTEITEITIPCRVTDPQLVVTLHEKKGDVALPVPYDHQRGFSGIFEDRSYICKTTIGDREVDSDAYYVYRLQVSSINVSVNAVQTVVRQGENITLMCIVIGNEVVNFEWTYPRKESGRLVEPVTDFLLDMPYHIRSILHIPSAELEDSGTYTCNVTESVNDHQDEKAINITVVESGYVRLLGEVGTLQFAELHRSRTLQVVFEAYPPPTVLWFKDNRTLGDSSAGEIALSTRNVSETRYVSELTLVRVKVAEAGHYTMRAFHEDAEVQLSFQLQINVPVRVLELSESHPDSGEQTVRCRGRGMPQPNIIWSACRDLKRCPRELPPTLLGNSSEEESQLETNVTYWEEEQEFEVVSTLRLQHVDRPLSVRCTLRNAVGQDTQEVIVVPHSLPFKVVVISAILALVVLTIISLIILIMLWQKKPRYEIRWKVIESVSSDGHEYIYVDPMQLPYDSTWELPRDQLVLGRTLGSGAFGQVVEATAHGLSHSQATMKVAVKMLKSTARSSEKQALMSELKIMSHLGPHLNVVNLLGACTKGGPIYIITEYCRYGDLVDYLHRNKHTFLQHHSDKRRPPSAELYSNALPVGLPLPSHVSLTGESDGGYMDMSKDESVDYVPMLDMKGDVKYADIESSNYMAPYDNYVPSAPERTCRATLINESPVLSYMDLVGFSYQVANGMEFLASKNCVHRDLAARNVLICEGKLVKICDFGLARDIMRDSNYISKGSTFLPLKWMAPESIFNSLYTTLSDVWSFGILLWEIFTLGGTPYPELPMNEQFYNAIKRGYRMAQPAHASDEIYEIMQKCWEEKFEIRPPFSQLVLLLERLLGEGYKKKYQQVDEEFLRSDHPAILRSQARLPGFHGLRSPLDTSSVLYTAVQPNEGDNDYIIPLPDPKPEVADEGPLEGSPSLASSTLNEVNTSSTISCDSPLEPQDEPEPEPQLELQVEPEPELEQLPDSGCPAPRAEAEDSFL

ABL1, sequence (P00519 whole entry): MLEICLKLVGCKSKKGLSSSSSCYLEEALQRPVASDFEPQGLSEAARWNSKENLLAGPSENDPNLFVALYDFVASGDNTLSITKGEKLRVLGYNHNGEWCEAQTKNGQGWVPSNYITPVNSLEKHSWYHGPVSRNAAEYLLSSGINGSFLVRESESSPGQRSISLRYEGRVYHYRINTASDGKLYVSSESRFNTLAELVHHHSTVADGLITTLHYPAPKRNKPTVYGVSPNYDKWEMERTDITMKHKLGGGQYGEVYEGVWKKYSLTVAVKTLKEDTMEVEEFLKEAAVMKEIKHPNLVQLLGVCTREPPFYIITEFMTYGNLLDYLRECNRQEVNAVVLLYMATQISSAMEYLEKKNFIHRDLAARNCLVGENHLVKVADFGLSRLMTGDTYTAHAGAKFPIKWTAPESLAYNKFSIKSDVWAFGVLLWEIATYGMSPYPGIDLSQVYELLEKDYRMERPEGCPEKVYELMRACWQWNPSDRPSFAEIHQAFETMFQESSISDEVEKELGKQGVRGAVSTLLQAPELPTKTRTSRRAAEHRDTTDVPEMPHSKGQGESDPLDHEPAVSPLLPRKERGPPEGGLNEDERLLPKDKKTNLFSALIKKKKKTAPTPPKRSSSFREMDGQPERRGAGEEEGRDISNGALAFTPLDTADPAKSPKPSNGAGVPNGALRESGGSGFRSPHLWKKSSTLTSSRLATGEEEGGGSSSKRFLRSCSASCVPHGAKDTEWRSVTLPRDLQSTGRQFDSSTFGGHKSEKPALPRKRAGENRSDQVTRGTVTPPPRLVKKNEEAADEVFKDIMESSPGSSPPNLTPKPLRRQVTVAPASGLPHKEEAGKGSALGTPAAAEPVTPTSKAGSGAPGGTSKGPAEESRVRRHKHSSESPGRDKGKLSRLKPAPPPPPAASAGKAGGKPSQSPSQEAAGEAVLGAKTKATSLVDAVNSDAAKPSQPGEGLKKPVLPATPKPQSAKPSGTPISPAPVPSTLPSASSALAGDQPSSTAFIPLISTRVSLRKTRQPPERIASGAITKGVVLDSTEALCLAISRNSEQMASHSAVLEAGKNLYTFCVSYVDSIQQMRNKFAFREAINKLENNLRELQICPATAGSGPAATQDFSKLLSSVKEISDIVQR
KIT, sequence (P10721 26-976): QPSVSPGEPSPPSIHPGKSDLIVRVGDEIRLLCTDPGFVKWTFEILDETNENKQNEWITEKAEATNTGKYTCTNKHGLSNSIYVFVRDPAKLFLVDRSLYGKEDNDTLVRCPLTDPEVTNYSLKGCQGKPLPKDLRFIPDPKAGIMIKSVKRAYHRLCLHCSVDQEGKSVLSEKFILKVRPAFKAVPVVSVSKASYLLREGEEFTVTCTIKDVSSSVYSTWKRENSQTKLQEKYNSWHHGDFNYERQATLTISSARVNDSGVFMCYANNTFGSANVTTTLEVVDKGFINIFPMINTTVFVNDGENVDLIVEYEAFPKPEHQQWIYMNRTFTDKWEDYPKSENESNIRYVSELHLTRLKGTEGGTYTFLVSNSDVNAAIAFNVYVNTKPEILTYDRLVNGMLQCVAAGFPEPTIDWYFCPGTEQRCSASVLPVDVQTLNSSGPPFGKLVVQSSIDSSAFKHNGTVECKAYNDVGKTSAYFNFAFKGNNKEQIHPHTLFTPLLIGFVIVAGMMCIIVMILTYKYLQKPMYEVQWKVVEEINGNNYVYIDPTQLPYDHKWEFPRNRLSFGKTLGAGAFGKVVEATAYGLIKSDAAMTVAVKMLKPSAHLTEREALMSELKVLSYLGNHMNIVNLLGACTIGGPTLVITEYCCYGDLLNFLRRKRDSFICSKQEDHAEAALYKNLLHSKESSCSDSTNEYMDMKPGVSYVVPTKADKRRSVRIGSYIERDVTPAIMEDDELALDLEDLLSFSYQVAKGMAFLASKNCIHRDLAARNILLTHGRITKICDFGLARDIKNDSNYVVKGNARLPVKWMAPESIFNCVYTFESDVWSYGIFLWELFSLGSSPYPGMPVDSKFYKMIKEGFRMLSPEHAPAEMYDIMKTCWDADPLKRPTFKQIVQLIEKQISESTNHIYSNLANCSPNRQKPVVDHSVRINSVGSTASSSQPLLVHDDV
JAK2, sequence (O60674 whole entry): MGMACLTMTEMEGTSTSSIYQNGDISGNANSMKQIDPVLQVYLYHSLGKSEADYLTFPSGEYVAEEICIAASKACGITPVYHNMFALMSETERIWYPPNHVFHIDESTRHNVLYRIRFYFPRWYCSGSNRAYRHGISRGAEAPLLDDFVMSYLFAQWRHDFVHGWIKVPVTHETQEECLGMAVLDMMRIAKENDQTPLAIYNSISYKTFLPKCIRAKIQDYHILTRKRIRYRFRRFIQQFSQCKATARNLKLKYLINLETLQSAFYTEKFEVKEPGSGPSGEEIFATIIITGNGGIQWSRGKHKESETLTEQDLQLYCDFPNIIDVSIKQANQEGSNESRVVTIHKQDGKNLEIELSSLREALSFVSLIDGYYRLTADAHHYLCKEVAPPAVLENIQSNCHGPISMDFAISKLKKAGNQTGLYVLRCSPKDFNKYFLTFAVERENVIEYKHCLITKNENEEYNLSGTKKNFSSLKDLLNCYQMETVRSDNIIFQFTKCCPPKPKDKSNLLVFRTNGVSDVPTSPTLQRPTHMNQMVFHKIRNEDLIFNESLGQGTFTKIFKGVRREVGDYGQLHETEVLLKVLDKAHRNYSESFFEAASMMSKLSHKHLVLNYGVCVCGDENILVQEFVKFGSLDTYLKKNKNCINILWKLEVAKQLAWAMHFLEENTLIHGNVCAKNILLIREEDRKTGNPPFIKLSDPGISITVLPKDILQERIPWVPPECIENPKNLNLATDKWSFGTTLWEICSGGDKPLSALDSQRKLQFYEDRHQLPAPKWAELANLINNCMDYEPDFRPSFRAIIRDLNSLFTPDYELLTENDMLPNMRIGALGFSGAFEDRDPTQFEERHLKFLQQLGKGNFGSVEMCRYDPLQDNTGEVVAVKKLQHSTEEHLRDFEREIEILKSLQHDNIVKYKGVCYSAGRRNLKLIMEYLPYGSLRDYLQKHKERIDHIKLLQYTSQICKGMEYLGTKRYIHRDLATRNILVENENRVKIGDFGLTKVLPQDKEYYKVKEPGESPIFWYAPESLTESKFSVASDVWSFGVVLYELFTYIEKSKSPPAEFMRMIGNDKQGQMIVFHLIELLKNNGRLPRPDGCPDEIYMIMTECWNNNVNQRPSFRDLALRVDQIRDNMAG

Oc1ccc(-c2cc3cccnc3[nH]2)cc1 [compound 1, 4-(1H-pyrrolo[2,3-b]pyridin-2-yl)phenol]
IC50 (JAK2): All kinases tested showed inhibition in the µM range. | IC50 (KIT): All kinases tested showed inhibition in the µM range. | IC50 (ABL1): All kinases tested showed inhibition in the µM range. | IC50 (AURKC): All kinases tested showed inhibition in the µM range. | IC50 (DRAK2): All kinases tested showed inhibition in the µM range. | IC50 (PDGFR-β): All kinases tested showed inhibition in the µM range.
